Laboratory results published in ChEMBL document CHEMBL5532637, “Antimicrobial activity of natural and semi-synthetic carbazole alkaloids” (Eur J Med Chem, 2023).
Converted amounts (≈) assume the structure as drawn.

What was measured:
Nannizzia gypsea = test: Antifungal activity against Microsporum gypseum assessed as inhibition of fungal growth by serial dilution method; type: functional
Cryptococcus neoformans = test: Antifungal activity against Cryptococcus neoformans assessed as inhibition of fungal growth by serial dilution method; type: functional
Aspergillus fumigatus = test: Antifungal activity against Aspergillus fumigatus assessed as inhibition of fungal growth by serial dilution method; type: functional
Caulobacter vibrioides = test: Antibacterial activity against Caulobacter crescentus assessed as inhibition of bacterial growth incubated for 24 hrs; type: functional
Staphylococcus aureus [1] = test: Antibacterial activity against Staphylococcus aureus assessed as inhibition of bacterial growth incubated for 24 hrs; type: functional
Staphylococcus aureus [2] = test: Antibacterial activity against wild type Staphylococcus aureus assessed as inhibition of bacterial growth incubated for 20 hrs by broth microdilution method; type: functional
Bacillus subtilis [3] = test: Antibacterial activity against Bacillus subtilis assessed as inhibition of bacterial growth incubated for 20 hrs by broth microdilution method; type: functional
Staphylococcus aureus [4] = test: Antibacterial activity against methicillin-resistant Staphylococcus aureus assessed as inhibition of bacterial growth incubated for 20 hrs by broth microdilution method; type: functional
Klebsiella pneumoniae = test: Antibacterial activity against Klebsiella pneumoniae assessed as inhibition of bacterial growth incubated for 20 hrs by broth microdilution method; type: functional
Escherichia coli [5] = test: Antibacterial activity against wild type Escherichia coli assessed as inhibition of bacterial growth incubated for 20 hrs by broth microdilution method; type: functional
Escherichia coli [6] = test: Antibacterial activity against Escherichia coli expressing recombinant blaNDM-1 gene assessed as inhibition of bacterial growth incubated for 20 hrs by broth microdilution method; type: functional
Escherichia coli [7] = test: Antibacterial activity against Escherichia coli expressing blaNDM-1 gene assessed as inhibition of bacterial growth incubated for 20 hrs by broth microdilution method; type: functional
Staphylococcus aureus [8] = test: Antibacterial activity against Staphylococcus aureus ATCC 29213 assessed as inhibition of bacterial growth by microdilution assay; type: functional
Staphylococcus simulans = test: Antibacterial activity against Staphylococcus simulans 22 assessed as inhibition of bacterial growth by microdilution assay; type: functional
Moraxella catarrhalis = test: Antibacterial activity against Moraxella catarrhalis ATCC 43617 assessed as inhibition of bacterial growth by microdilution assay; type: functional
Enterococcus faecium = test: Antibacterial activity against Enterococcus faecium BM 4147 assessed as inhibition of bacterial growth by microdilution assay; type: functional
Bacillus subtilis [9] = test: Antibacterial activity against Bacillus subtilis 168 assessed as inhibition of bacterial growth by microdilution assay; type: functional
[10] = test system: Mycolicibacterium smegmatis; test: Antimicrobial activity against Mycobacterium smegmatis assessed as inhibition of microbial growth incubated for 18 to 20 hrs by broth microdilution method; type: functional; conditions: time 18-20 hrs
Candida albicans [11] = test: Antimicrobial activity against Candida albicans assessed as inhibition of microbial growth incubated for 18 to 20 hrs by broth microdilution method; type: functional; conditions: time 18-20 hrs
Staphylococcus aureus [12] = test: Antimicrobial activity against methicillin-resistant Staphylococcus aureus assessed as inhibition of microbial growth incubated for 18 to 20 hrs by broth microdilution method; type: functional; conditions: time 18-20 hrs
Bacillus mycoides = test: Antimicrobial activity against Bacillus mycoides assessed as inhibition of microbial growth incubated for 18 to 20 hrs by broth microdilution method; type: functional; conditions: time 18-20 hrs
Pseudomonas aeruginosa = test: Antibacterial activity against Pseudomonas aeruginosa assessed as zone of inhibition incubated for 24 hrs by disk diffusion method; type: functional
Staphylococcus aureus [13] = test: Antibacterial activity against Staphylococcus aureus assessed as zone of inhibition incubated for 24 hrs by disk diffusion method; type: functional
Staphylococcus aureus [14] = test: Antibacterial activity against methicillin-resistant Staphylococcus aureus assessed as inhibition of bacterial growth incubated for 24 hrs by two-fold serial dilution assay; type: functional
Staphylococcus aureus [15] = test: Antibacterial activity against methicillin-sensitive Staphylococcus aureus assessed as inhibition of bacterial growth incubated for 24 hrs by two-fold serial dilution assay; type: functional
Candida albicans [16] = test: Antifungal activity against Candida albicans SC5314 assessed as inhibition of fungal growth incubated for 24 hrs by microtiter plate reader assay; type: functional
Bacillus subtilis [17] = test: Antibacterial activity against Bacillus subtilis assessed as inhibition of bacterial growth; type: functional
Staphylococcus aureus [18] = test: Antibacterial activity against Staphylococcus aureus assessed as inhibition of bacterial growth; type: functional, organism-based
Staphylococcus aureus [19] = test: Antimicrobial activity against methicillin-resistant Staphylococcus aureus assessed as inhibition of microbial growth incubated for 18 hrs by agar diffusion method; type: functional
Staphylococcus aureus [20] = test: Antimicrobial activity against Staphylococcus aureus assessed as inhibition of microbial growth incubated for 18 hrs by agar diffusion method; type: functional
Candida albicans [21] = test: Antimicrobial activity against Candida albicans assessed as zone of inhibition incubated for 24 hrs by agar diffusion method; type: functional
Escherichia coli [22] = test: Antimicrobial activity against Escherichia coli NCIM 2065 assessed as zone of inhibition incubated for 24 hrs by agar diffusion method; type: functional
Staphylococcus aureus [23] = test: Antimicrobial activity against Staphylococcus aureus NCIM 2120 assessed as zone of inhibition incubated for 24 hrs by agar diffusion method; type: functional
Proteus vulgaris = test: Antimicrobial activity against Proteus vulgaris NCIM 2813 assessed as zone of inhibition incubated for 24 hrs by agar diffusion method; type: functional
[24] = test system: Mycobacterium tuberculosis; test: Antibacterial activity against Mycobacterium tuberculosis H37Rv assessed as inhibition of bacterial growth by two-fold serial dilution method; type: functional
[25] = Cytotoxicity against green monkey Vero cells; type: toxicity, cell-based; conditions: green monkey (Chlorocebus sabaeus)
Nakaseomyces glabratus = test: Antifungal activity against Candida glabrata ATCC 90030 assessed as inhibition of fungal growth incubated for 24 hrs by microtiter plate reader assay; type: functional

## Cc1ccc2c(c1)c1c(n2CCCNCc2ccccc2)CCCC1
Nannizzia gypsea
  MIC80: 0.016 mg/L (≈ 0.0481 µM)
Cryptococcus neoformans
  MIC80: 1 mg/L (≈ 3.01 µM)
Aspergillus fumigatus
  MIC80: 32 mg/L (≈ 96.2 µM)

## OCC(CO)(CO)NCC(O)Cn1c2ccc(Cl)cc2c2cc(Cl)ccc21 (configuration not stated)
Caulobacter vibrioides
  MIC: 15 µM (≈ 6.2 µg/mL)
Staphylococcus aureus [1]
  MIC: 50 µM (≈ 20.7 µg/mL)

## Fc1cc(F)c2c(c1)[nH]c1ccc(F)cc12
Staphylococcus aureus [2]
  MIC: 1.5 mg/L (≈ 6.78 µM)
Bacillus subtilis [3]
  MIC: 1.5 mg/L (≈ 6.78 µM)
Staphylococcus aureus [4]
  MIC: 1.5 mg/L (≈ 6.78 µM)
Klebsiella pneumoniae
  MIC: 1.5 mg/L (≈ 6.78 µM)
Escherichia coli [5]
  MIC: 1.5 mg/L (≈ 6.78 µM)
Escherichia coli [6]
  MIC: 1.5 mg/L
Escherichia coli [7]
  MIC: 1.5 mg/L (≈ 6.78 µM)

## c1ccc(CCNC2CCCc3c2[nH]c2ccc(C4CCCCC4)cc32)cc1 (configuration not stated)
Staphylococcus aureus [8]
  MIC: 2 mg/L (≈ 5.37 µM)
Staphylococcus simulans
  MIC: 2 mg/L (≈ 5.37 µM)
Moraxella catarrhalis
  MIC: 1 mg/L (≈ 2.68 µM)
Enterococcus faecium
  MIC: 2 mg/L (≈ 5.37 µM)
Bacillus subtilis [9]
  MIC: 2 mg/L (≈ 5.37 µM)

## COc1ccc2[nH]c3c(O)cccc3c2c1Cl
[10]
  MIC: 32 mg/L
Candida albicans [11]
  MIC: 32 mg/L
Staphylococcus aureus [12]
  MIC: 32 mg/L
Bacillus mycoides
  MIC: 32 mg/L

## CCOc1nc2c(c(-c3cccs3)c1C(N)=O)CCc1c-2[nH]c2ccc(Cl)cc12
Pseudomonas aeruginosa
  inhibition zone (IZ): 2.1 cm
Staphylococcus aureus [13]
  inhibition zone (IZ): 1.1 cm

## N#Cc1ccc2c(c1)[nH]c1c(-c3c[nH]c4ccc(C#N)cc34)ccc(-c3c[nH]c4ccc(C#N)cc34)c12
Staphylococcus aureus [14]
  MIC: 8 mg/L (≈ 16.9 µM)
Staphylococcus aureus [15]
  MIC: 16 mg/L (≈ 33.9 µM)

## Clc1ccc2[nH]c3c(c2c1)CCCC3NCc1ccc(-c2ccccc2)cc1 (configuration not stated)
Candida albicans [16]
  MIC50: 6.8 µM (≈ 2.63 µg/mL)

## COC12C(=O)N(C)C(=O)C1(OC)c1c([nH]c3cc(Cl)ccc13)-c1[nH]c3cc(Cl)ccc3c12 (configuration not stated)
Bacillus subtilis [17]
  MIC: 3.1 mg/L (≈ 6.59 µM)
Staphylococcus aureus [18]
  MIC: 3.1 mg/L (≈ 6.59 µM)

## CC(C)=CC1OC(=O)c2cc(O)c3[nH]c4ccccc4c3c21 (configuration not stated)
Staphylococcus aureus [19]
  MIC: 64 mg/L
Staphylococcus aureus [20]
  MIC: 64 mg/L

## Cn1c2ccccc2c2cc(/C=C/C(=O)c3ccc([N+](=O)[O-])cc3)ccc21
Candida albicans [21]
  inhibition zone (IZ): 5 mm
Escherichia coli [22]
  inhibition zone (IZ): 2.5 mm
Staphylococcus aureus [23]
  inhibition zone (IZ): 4.5 mm
Proteus vulgaris
  inhibition zone (IZ): 4 mm

## COc1ccc2[nH]c3c(OCc4ccccc4)cc(C)cc3c2c1
[24]
  MIC90: 31.7 mg/L (≈ 99.9 µM)
[25]
  IC50: > 128 µM

## FC(F)(F)Oc1ccc2c3c([nH]c2c1)C(NCCOc1ccc(Cl)cc1)CCC3 (configuration not stated)
Nakaseomyces glabratus
  MIC50: 5.3 µM (≈ 2.25 µg/mL)
